The nature of one data set: in vitro. It counts as cell-based. As to conditions: human. As for the experimental part: (§1) For the antiviral assay utilizing MT4 cells, 0.4 μL of 189× test concentration of 3-fold serially diluted compound in DMSO was added to 40 μL of cell growth medium (RPMI 1640, 10% FBS, 1% penicillin/streptomycin, 1% L-Glutamine, 1% HEPES) in each well of 384-well assay plates (10 concentrations) in quadruplicate. 1 mL aliquots of 2×10^6 MT4 cells are pre-infected for 1 and 3 hours respectively at 37° C. with 25 μL (MT4) or of either cell growth medium (mock-infected) or a fresh 1:250 dilution of an HIV-IIIb concentrated ABI stock (0.004 m.o.i. for MT4 cells). Infected and uninfected cells are diluted in cell growth medium and 35 μL of 2000 (for MT4) cells is added to each well of the assay plates. Assay plates were then incubated in a 37° C. incubator. After 5 days of incubation, 25 μL of 2× concentrated CellTiter-Glo™ Reagent (catalog # G7573, Promega Biosciences, Inc., Madison, Wis.) was added to each well of the assay plate. Cell lysis was carried out by incubating at room temperature for 2-3 minutes, and then chemiluminescence was read using the Envision reader (PerkinElmer).

A further data set relates to HIV-IIIb. Nature of the data set: Antiviral assay in MT4 cells. It counts as cell-based. As to conditions: Human immunodeficiency virus 1, 120 h; MT4 cells infected with HIV-IIIb, 5 days incubation, CellTiter-Glo; average over time; read-out: EC50 nM in MT-4. As for the experimental part: as §1
For orientation: Cellular ATP, detected with luciferase, serves as a proxy for viable cell number.

With `C[C@@H](NC(=O)c1cn2c(c(O)c1=O)C(=O)N1[C@@H]3C[C@H](O[C@@H]1C2)[C@H]1C[C@H]13)c1ccc(F)cc1F` [Compound 3, (1aS,2S,3aR,12R,12aR)-N-((R)-1-(2,4-difluorophenyl)ethyl)-9-hydroxy-8,10-dioxo-1a,2,3a,4,8,10,12,12a-octahydro-1H-2,12-methanocyclopropa[e]pyrido[1′,2′:4,5]pyrazino[2,1-b][1,3]oxazepine-7-carboxamide], in “in vitro”, the CC50 (as a rule, the concentration giving 50% cytotoxicity) at 5 days was 4.1 µM. Besides, in the data set on HIV-IIIb, the EC50 (in general, the midpoint of the concentration-response curve) stood at 9.9 nM.

As to `O=C(NCc1c(F)cc(F)cc1F)c1cn2c(c(O)c1=O)C(=O)N1C(C2)O[C@@H]2C[C@H]1[C@H]1C[C@H]12` (stereo partly drawn) [Compound 11, (1aR,2R,10aR,11S,11a5)-5-hydroxy-4,6-dioxo-N-(2,4,6-trifluorobenzyl)-1a,2,4,6,10,10a,11,11a-octahydro-1H-2,11-methanocyclopropa[4,5]pyrido[1,2-a]pyrido[1,2-d]pyrazine-7-carboxamide], the cytotoxic concentration (CC50) at 5 days in “in vitro” came out at 11 µM. Further, the EC50 in the data set with HIV-IIIb turned out to be 1.5 nM.

Take `O=C(NCc1c(F)cc(F)cc1F)c1cn2c(c(O)c1=O)C(=O)N1[C@H](C2)[C@@H]2C[C@H]1[C@H]1C[C@@H]21` [Compound 9, (1aS,2S,10aS,11R,11aR)-5-hydroxy-4,6-dioxo-N-(2,4,6-trifluorobenzyl)-1a,2,4,6,10,10a,11,11a-octahydro-1H-2,11-methanocyclopropa[4,5]pyrido[1,2-a]pyrido[1,2-d]pyrazine-7-carboxamide]: it took 10.7 µM to reach half-maximal cytotoxicity in the data set “in vitro” (CC50 at 5 days). The EC50 in the data set with HIV-IIIb is 1.4 nM.

Regarding `O=C(NCc1cc(F)c(F)cc1F)c1cn2c(c(O)c1=O)C(=O)N1C3CC([C@@H]4C[C@H]34)[C@@H]1C2` (stereo partly drawn) [Compound 13, (1aR,2R,10aR,11S,11a5)-5-hydroxy-4,6-dioxo-N-(2,4,5-trifluorobenzyl)-1a,2,4,6,10,10a,11,11a-octahydro-1H-2,11-methanocyclopropa[4,5]pyrido[1,2-a]pyrido[1,2-d]pyrazine-7-carboxamide], in the data set “in vitro”, the CC50 at 5 days came out at 7.05 µM. Besides, the EC50 in the data set with HIV-IIIb worked out at 2.3 nM.

The compound `O=C(N[C@@H](c1ccc(F)cc1F)C(F)(F)F)c1cn2c(c(O)c1=O)C(=O)N1[C@H](C2)O[C@@H]2C[C@H]1[C@H]1C[C@H]12` [Compound 2, (1aR,2R,3aS,12S,12aS)-N-((S)-1-(2,4-difluorophenyl)-2,2,2-trifluoroethyl)-9-hydroxy-8,10-dioxo-1a,2,3a,4,8,10,12,12a-octahydro-1H-2,12-methanocyclopropa[e]pyrido[1′,2′:4,5]pyrazino[2,1-b][1,3]oxazepine-7-carboxamide] came in with a 50% cytotoxic concentration (CC50) at 5 days in “in vitro” of 7.8 µM. Also, the concentration for a half-maximal effect (EC50) in the data set on HIV-IIIb was 10.7 nM.

As for `O=C(NCc1ccc(F)cc1F)c1cn2c(c(O)c1=O)C(=O)N1C(C2)O[C@@H]2C[C@H]1[C@H]1C[C@H]12` (stereo partly drawn) [Compound 6, (1aR,2R,3aS,12S,12a5)-N-(2,4-difluorobenzyl)-9-hydroxy-8,10-dioxo-1a,2,3a,4,8,10,12,12a-octahydro-1H-2,12-methanocyclopropa[e]pyrido[1′,2′:4,5]pyrazino[2,1-b][1,3]oxazepine-7-carboxamide], the 50% cytotoxic concentration (CC50) at 5 days in “in vitro” turned out to be 14.1 µM. In the data set on HIV-IIIb, the EC50 came to 1.5 nM.

In the case of `O=C(N[C@@H](c1ccc(F)cc1F)C(F)(F)F)c1cn2c(c(O)c1=O)C(=O)N1[C@@H]3C[C@H](O[C@@H]1C2)[C@H]1C[C@H]13` [Compound 1, (1aS,2S,3aR,12R,12aR)-N-((S)-1-(2,4-difluorophenyl)-2,2,2-trifluoroethyl)-9-hydroxy-8,10-dioxo-1a,2,3a,4,8,10,12,12a-octahydro-1H-2,12-methanocyclopropa[e]pyrido[1′,2′:4,5]pyrazino[2,1-b][1,3]oxazepine-7-carboxamide], the CC50 at 5 days in the data set “in vitro” was 14.1 µM. In the data set on HIV-IIIb, the 50% effective concentration (EC50) turned out to be 9.6 nM.

In turn, `O=C(NCc1ccc(F)cc1F)c1cn2c(c(O)c1=O)C(=O)N1[C@@H]3C[C@H](O[C@@H]1C2)[C@H]1C[C@H]13` [Compound 7, (1aS,2S,3aR,12R,12aR)-N-(2,4-difluorobenzyl)-9-hydroxy-8,10-dioxo-1a,2,3a,4,8,10,12,12a-octahydro-1H-2,12-methanocyclopropa[e]pyrido[1′,2′:4,5]pyrazino[2,1-b][1,3]oxazepine-7-carboxamide] yielded a 50% cytotoxic concentration (CC50) at 5 days in “in vitro” of 4.83 µM. Moreover, the EC50 in the data set with HIV-IIIb came out at 2.7 nM.

Consider `C[C@@H](NC(=O)c1cn2c(c(O)c1=O)C(=O)N1C3CC(O[C@H]1C2)[C@@H]1C[C@H]31)c1ccc(F)cc1F` (some centres unmarked) [Compound 4], for which, in the data set “in vitro”, it took 12.8 µM to reach half-maximal cytotoxicity (CC50 at 5 days). In the data set on HIV-IIIb, the concentration for a half-maximal effect (EC50) came to 8.4 nM.

`O=C(NCc1c(F)cc(F)cc1F)c1cn2c(c(O)c1=O)C(=O)N1[C@@H]3C[C@H](O[C@@H]1C2)[C@H]1C[C@H]13` [Compound 10, (1aS,2S,3aR,12R,12aR)-9-hydroxy-8,10-dioxo-N-(2,4,6-trifluorobenzyl)-1a,2,3a,4,8,10,12,12a-octahydro-1H-2,12-methanocyclopropa[e]pyrido[1′,2′:4,5]pyrazino[2,1-b][1,3]oxazepine-7-carboxamide] had a CC50 at 5 days in the data set “in vitro” of 7.59 µM. In the data set with HIV-IIIb, the EC50 is 1.7 nM.

Consider `O=C(NCc1ccc(F)cc1F)c1cn2c(c(O)c1=O)C(=O)N1C(C2)O[C@@H]2C[C@H]1[C@@H]1[C@H]2C1(F)F` (stereo partly drawn) [Compound 5, (1aR,2R,12S,12a5)-N-(2,4-difluorobenzyl)-1,1-difluoro-9-hydroxy-8,10-dioxo-1a,2,3a,4,8,10,12,12a-octahydro-1H-2,12-methanocyclopropa[e]pyrido[1′,2′:4,5]pyrazino[2,1-b][1,3]oxazepine-7-carboxamide], for which the midpoint of cytotoxicity in the data set “in vitro”, the CC50 at 5 days, lay at 50.5 µM. Further, in the data set on HIV-IIIb, the EC50 was determined as 1.6 nM.

`O=C(NCc1c(F)cc(F)cc1F)c1cn2c(c(O)c1=O)C(=O)N1[C@@H]3C[C@@H]([C@H]4C[C@H]43)[C@@H]1C2` [Compound 12, (1aR,2R,10aR,11S,11aS)-5-hydroxy-4,6-dioxo-N-(2,4,6-trifluorobenzyl)-1a,2,4,6,10,10a,11,11a-octahydro-1H-2,11-methanocyclopropa[4,5]pyrido[1,2-a]pyrido[1,2-d]pyrazine-7-carboxamide]: the CC50 at 5 days in the data set “in vitro” amounted to 22.8 µM. The half-maximal effective concentration (EC50) in the data set with HIV-IIIb was 2.9 nM.

Take `O=C(NCc1ccc(F)cc1F)c1cn2c(c(O)c1=O)C(=O)N1[C@H](C2)[C@@H]2C[C@H]1[C@H]1C[C@@H]21` [Compound 8, (1aS,2S,10aS,11R,11aR)-N-(2,4-difluorobenzyl)-5-hydroxy-4,6-dioxo-1a,2,4,6,10,10a,11,11a-octahydro-1H-2,11-methanocyclopropa[4,5]pyrido[1,2-a]pyrido[1,2-d]pyrazine-7-carboxamide]: in the data set “in vitro”, the CC50 at 5 days came out at 8.84 µM. The concentration for a half-maximal effect (EC50) in the data set with HIV-IIIb is 1.4 nM.

(Values after patent publication US10668064B2, “Polycyclic-carbamoylpyridone compounds and their pharmaceutical use” (Gilead Sciences, Inc., priority 2013, dated 2020).)
